Measured values taken from PubChem BioAssay (NCI).
“And” between values parts separate entries of the source, which are not always exact repeats. Equal values may be shown once.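 Each compound was tested at five concentrations against cells in 96-well plates for 48 hours. GI50 marks 50% less growth. TGI: total growth inhibition.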

What was measured:
Experiment in all cases: NCI-60 cell line screen, 48 h
MOLT-4 leukemia = test system: MOLT-4 leukemia
OVCAR-5 ovarian = test system: OVCAR-5 ovarian
MDA-MB-435 = test system: MDA-MB-435
HS 578T breast = test system: HS 578T breast
OVCAR-3 ovarian = test system: OVCAR-3 ovarian
A549 NSCLC = test system: A549 NSCLC
U251 CNS = test system: U251 CNS
NCI-H23 lung = test system: NCI-H23 lung
SF-295 CNS = test system: SF-295 CNS
SK-MEL-28 melanoma = test system: SK-MEL-28 melanoma
PC-3 prostate = test system: PC-3 prostate
CAKI-1 renal = test system: CAKI-1 renal

Compound | TGI (MOLT-4 leukemia) [µM] | TGI (OVCAR-5 ovarian) [µM] | TGI (MDA-MB-435) [µM] | TGI (HS 578T breast) [µM] | TGI (OVCAR-3 ovarian) [µM] | TGI (A549 NSCLC) [µM] | TGI (U251 CNS) [µM] | TGI (NCI-H23 lung) [µM] | TGI (SF-295 CNS) [µM] | TGI (SK-MEL-28 melanoma) [µM] | TGI (PC-3 prostate) [µM] | TGI (CAKI-1 renal) [µM] | GI50 (MOLT-4 leukemia) | GI50 (HS 578T breast)
CC1(O)/C(=N/O)CC2CC1C2(C)C (centres undefined) | > 100 | > 100 | > 100 | > 100 | > 100 | > 100 | > 100 | > 100 | > 100 | > 100 | – | – | – | –
C[C@]12CC(c3ccccc3O1)C(C(=O)NC13CC4CC(CC(C4)C1)C3)C(=O)N2 (some centres undefined) | 36.7 | 52.7 | 65.1 | > 100 | > 100 | 71.7 | > 100 | 61.9 | > 100 | 64 | > 100 | > 100 | – | –
COc1ccc(CN(CCc2c[nH]c3ccccc23)Cc2ccc(OC)cc2)cc1 | > 100 | 9.62 | 11.7 | 63 | 9.25 | > 31.7 | – | 10.5 | 5.78 | > 80.4 | 13 | > 30.2 | – | –
O=C(Cc1ccccc1)c1ccc2[nH]c(=O)oc2c1 | > 100 | > 100 | > 100 | 22.9 | > 100 | – | 62.3 | > 100 | > 100 | > 100 | > 100 | > 100 | – | –
CC(=O)CCC[C@@H](C)[C@@H]1O[C@H]([C@@]2(C)CCC(=O)O2)C[C@H]2C(CSc3ccccc3)C(=O)O[C@@H]12 (some centres undefined) | 16 | 32.4 | 45.6 | > 41.6 | 27.8 | 44.1 | 36.3 | 49.3 | > 66 | 41.7 | 47.6 | 27.2 | – | –
Cc1ccc(S(=O)(=O)N2CCCCN(S(=O)(=O)c3ccc(C)cc3)Cc3ccccc3OCCOCCOc3c4cccc3Cc3cccc5c3OCCOCCOc3ccccc3CN(S(=O)(=O)c3ccc(C)cc3)CCCN(S(=O)(=O)c3ccc(C)cc3)Cc3ccccc3OCCOCCOc3c(cccc3C4)Cc3cccc(c3OCCOCCOc3ccccc3C2)C5)cc1 | > 100 | > 100 | > 100 | > 100 | > 100 | > 100 | > 100 | > 100 | > 100 | – | > 100 | > 100 | – | –
CC1C[C@]2(C)C(=S)Nc3ccccc3[C@@H]2Nc2ccccc21 (some centres undefined) | 56.1 | 43.5 | 31.2 | 85.5 | 32.1 | 37.8 | – | 33.9 | 37.9 | 12.7 | 35.7 | 79 | – | –
[N-]=[N+]=Nc1ccc2c(c1)Sc1ccccc1N2CCCCCl | > 100 | > 100 | > 100 | > 100 | > 100 | > 100 | > 100 | > 100 | > 100 | > 100 | > 100 | > 100 | – | –
CCCCCc1c2nc(c(CCCCC)c3ccc([nH]3)c(CCCCC)c3ccc([nH]3)c(CCCCC)c3nc1C=C3)C=C2 | > 100 | > 100 | > 100 | > 100 | > 100 | > 100 | > 100 | > 100 | > 100 | > 100 | > 100 | > 100 | – | –
COC(=O)[C@H](Cc1ccccc1)NC(=O)N1CCN(C(=O)N[C@@H](Cc2ccccc2)C(=O)OC)CCN(C(=O)N[C@@H](Cc2ccccc2)C(=O)OC)CC1 | > 100 | > 100 | > 100 | > 100 | > 100 | > 100 | > 100 | > 100 | > 100 | > 100 | > 100 | > 100 | – | –
CSc1cc(Cl)c(C)cc1S(=O)(=O)NC(=O)NNc1ccc(F)c(Cl)c1 | > 100 | > 100 | > 100 | > 100 | > 100 | > 100 | > 100 | – | > 100 | > 100 | > 100 | > 100 | – | –
CCOC(=O)c1nc2ccc(C(F)(F)F)cc2nc1Oc1ccc(F)cc1 | > 100 | – | > 100 | > 100 | – | – | > 100 | > 100 | > 100 | > 100 | > 100 | > 100 | – | –
COc1ccc(OC)c2nc3c(C(=O)NCCN(C)C)cccc3nc12 | 17.6 | > 78.2 | 17.5 | 29.6 | 42.3 | > 34.7 | 28.6 | 25.5 | 25.6 | 22.2 | 17.9 | > 74 | – | –
CC1N(C)C(=O)OC12CCN(CCCC(=O)c1ccc(F)cc1)CC2 (centres undefined) | > 100 | > 100 | > 100 | > 100 | > 100 | > 100 | > 100 | > 100 | > 100 | > 100 | > 100 | > 100 | – | –
Cc1c2c(n(CCc3ccccc3)c1C)NN=C(C#N)S2(=O)=O | > 100 | > 100 | > 100 | > 100 | > 100 | > 100 | > 100 | > 100 | – | > 100 | > 100 | – | – | –
C[Si](C)(C)OC1c2[nH]c3ccccc3c2CN2C(=O)CCC12 (centres undefined) | > 100 | > 100 | > 100 | > 100 | > 100 | > 100 | > 100 | – | – | > 100 | > 100 | > 100 | – | –
CC1OC(O[C@H]2CC[C@]3(C)[C@H]4CC=C5[C@@H]6[C@@H](C)[C@H](C)CC[C@]6(C(=O)O)CC[C@@]5(C(=O)O)[C@]4(C)CC[C@H]3C2(C)C)C(O)C(O)C1O (some centres undefined) | > 75 | > 75 | > 75 | > 75 | > 75 | – | > 75 | > 75 | > 75 | – | > 75 | > 75 | – | –
O=C1CCCC2=C1CC1=C(CCCC1=O)N2c1cccc2ccccc12 | > 100 | > 100 | – | > 100 | > 100 | > 100 | > 100 | > 100 | – | > 100 | > 100 | > 100 | – | –
COC(=N)C12C(N)=NC(OC)(OC)C1(C#N)C21C(=O)N(c2ccccc2)N=C1C (centres undefined) | > 100 | > 100 | > 100 | – | > 100 | > 100 | > 100 | > 100 | > 100 | > 100 | > 100 | > 100 | – | –

Compound | TGI (MOLT-4 leukemia) [µM] | TGI (OVCAR-5 ovarian) [µM] | TGI (MDA-MB-435) [µM] | TGI (HS 578T breast) [µM] | TGI (OVCAR-3 ovarian) [µM] | TGI (A549 NSCLC) [µM] | TGI (U251 CNS) [µM] | TGI (NCI-H23 lung) [µM] | TGI (SF-295 CNS) [µM] | TGI (SK-MEL-28 melanoma) [µM] | TGI (PC-3 prostate) [µM] | TGI (CAKI-1 renal) [µM] | GI50 (MOLT-4 leukemia) | GI50 (HS 578T breast)
CC(=O)OC1COC(n2c(N)c(C#N)c(C)c(C#N)c2=S)C(OC(C)=O)C1OC(C)=O (centres undefined) | > 100 | > 100 | > 100 | > 100 | > 100 | > 100 | – | > 100 | > 100 | > 100 | > 100 | > 100 | > 100 µM and 43.2 µM | > 100 µM and 38.3 µM
S=C(Nc1cccc(Cl)c1)Nc1ccccn1 | > 100 | > 100 | > 100 | > 100 | > 100 | > 100 | > 100 | – | > 100 | > 100 | > 100 | > 100 | – | –
COc1cc2cc(C(=O)N3CC(CCl)c4ccc(NCCN)cc43)[nH]c2c(OC)c1OC (centres undefined) | 0.356 | 6.03 | 0.706 | 3.37 | 0.579 | 12.5 | – | 1.23 | 1.44 | 1.4 | 2.07 | 1 | – | –
CNC(=O)CCNC(=O)CCC(=O)OC | > 100 | > 100 | > 100 | – | > 100 | > 100 | > 100 | > 100 | > 100 | > 100 | > 100 | > 100 | – | –
CC1[C@@H](OCc2ccccc2)COC(=O)N1Cc1ccccc1 (some centres undefined) | > 100 | > 100 | > 100 | > 100 | > 100 | > 100 | > 100 | > 100 | > 100 | > 100 | > 100 | – | – | –
CC(C)CCC[C@@H](C)C1CCC2[C@@H]3CCC4CC(CCC=C(c5cc(Cl)c(OC(=O)c6ccccc6)c(C(=O)O)c5)c5cc(Cl)c(OC(=O)c6ccccc6)c(C(=O)O)c5)CC[C@]4(C)C3CC[C@@]21C (some centres undefined) | > 100 | > 100 | > 100 | > 100 | > 100 | > 100 | > 100 | > 100 | – | – | > 100 | > 100 | – | –
CNC(=O)c1n[nH][nH]c1=O | > 100 | > 100 | > 100 | > 100 | – | > 100 | > 100 | > 100 | > 100 | > 100 | > 100 | > 100 | – | –
C=C[C@@]1(C)CC(=O)[C@]2(O)[C@@]3(C)[C@@H](OC(C)=O)CCC(C)(C)[C@@H]3[C@H](OC(C)=O)[C@H](OC(C)=O)[C@@]2(C)O1 | > 100 | > 100 | > 100 | – | > 100 | > 100 | > 100 | > 100 | > 100 | > 100 | > 100 | > 100 | – | –
O=C1CCC2SC1CCC2=O | > 100 | > 100 | > 100 | – | > 100 | > 100 | > 100 | > 100 | > 100 | > 100 | > 100 | > 100 | – | –
c1ccc2sc(C3(N4CCCCC4)CCCC3)cc2c1 | 19.8 | 24.7 | 29.4 | 33.4 | 21.8 | 22.3 | – | 17.6 | 23.7 | 28.7 | – | 38.4 | – | –
NC1CC(=O)c2cc(Br)sc21 (centres undefined) | > 100 | > 100 | > 100 | – | > 100 | > 100 | > 100 | – | – | > 100 | > 100 | > 100 | – | –
Cc1cc(Cl)ccc1N=NC(=O)NNc1ccc(Cl)cc1C | 48.9 | 30.7 | 39.7 | – | 31 | 30.6 | 31.4 | 29.8 | – | 30.7 | 22.8 | – | – | –
O=C1CCCc2cc3c(cc21)CCC3C(=O)O (centres undefined) | > 100 | > 100 | – | > 100 | – | > 100 | > 100 | > 100 | > 100 | > 100 | > 100 | > 100 | – | –
CCCCCCCCCCCCCCCCP(=O)(O)OP(=O)(O)OCC1OC(n2cnc3c(N)ncnc32)C(O)C1O (centres undefined) | 76.4 | 29.2 | 96.7 | 89.1 | 88.1 | > 100 | 41.1 | 68.2 | – | > 100 | 52.9 | 64.4 | – | –
CCOC(=O)c1c(NC(=O)Nc2ccccc2)c(C(N)=O)c2n1CCCCC2 | > 100 | – | > 100 | > 100 | – | – | > 100 | > 100 | > 100 | > 100 | > 100 | > 100 | – | –
CC1NC(/C(=C/c2ccccc2O)NC(=O)c2ccccc2)OC1=O (centres undefined) | > 50 | > 50 | > 50 | – | > 50 | > 50 | > 50 | > 50 | > 50 | > 50 | > 50 | > 50 | – | –
N#CS/C(Cl)=C(/C(Cl)=C(Cl)Cl)[N+](=O)[O-] | 64.9 | > 100 | – | 61 | 48.9 | > 100 | > 100 | > 100 | > 100 | 86.5 | > 100 | > 100 | – | –
C=CCOCn1ccc(=O)[nH]c1=O | > 100 | – | > 100 | > 100 | – | > 100 | – | > 100 | > 100 | > 100 | > 100 | > 100 | – | –
O=c1cc(-c2cccc(OC(F)(F)F)c2)[nH]c2cc3c(cc12)OCO3 | > 100 | > 100 | 0.0367 | 4.9 | 3.92 | > 100 | 0.188 | > 100 | – | > 100 | > 100 | > 100 | – | –
